Some test systems named below: LOX IMVI melanoma; M14 melanoma; PC-3 prostate; HT29 colon; SF-268 CNS; HOP-92 NSCLC; NCI-H460 lung; SW-620 colon.
Common to all, as to assay: NCI anticancer screen, dose series, 48 h

“And” between values parts separate entries of the source, which are not always exact repeats. Identical values can stand only once.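 Grown in 96-well plates, cells were treated for 48 hours with each compound at five concentrations. Insufficient inhibition: endpoint recorded as highest concentration tested. GI50 marks 50% less growth. At the TGI there is no net growth.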 Bounds are passed on as bounds.

This is an account of results in PubChem BioAssay (NCI).

For the molecule `Cc1cc2cc3cc(C)c(N(C)C)cc3[n+](C)c2cc1N(C)C`, the GI50 was 3.14 µM in the test on LOX IMVI melanoma; 4.68 µM in the test on M14 melanoma; 2460 nM in the test with PC-3 prostate; 2460 nM with HT29 colon; 4.1 µM in the test on SF-268 CNS; 2.3 µM in the test with HOP-92 NSCLC. For the same molecule, the results for the GI50 in the test on NCI-H460 lung and in the test with SW-620 colon were 2650 nM and 2920 nM, respectively. Moreover, the TGI in the test with LOX IMVI melanoma was 40.8 µM; with M14 melanoma, 19.8 µM; with PC-3 prostate, 33.8 µM; in the test with HT29 colon, greater than 100 µM; with SF-268 CNS, 20.5 µM; with HOP-92 NSCLC, 11.1 µM. The figures for the TGI with NCI-H460 lung and with SW-620 colon were 11 µM and 18 µM, respectively.

On to `O=C1CC(c2cccc(O)c2)C2(C(=O)NC(=S)NC2=O)C(c2cccc(O)c2)C1` (stereo not given), for which the GI50 with LOX IMVI melanoma is greater than 100 µM; in the test on M14 melanoma, greater than 100 µM; in the test on PC-3 prostate, greater than 100000 nM; in the test on HT29 colon, greater than 100000 nM; in the test with SF-268 CNS, greater than 100 µM; in the test on HOP-92 NSCLC, greater than 100 µM. Moreover, the GI50 with NCI-H460 lung and in the test with SW-620 colon was greater than 100000 nM throughout. Also, the TGI with LOX IMVI melanoma, with M14 melanoma, with PC-3 prostate, with HT29 colon, in the test on SF-268 CNS and in the test on HOP-92 NSCLC was greater than 100 µM in each case. For the same molecule, the TGI in the test on NCI-H460 lung and in the test on SW-620 colon was greater than 100 µM throughout.

As to `O=c1cc(-c2ccccc2)oc2cc(O)c(O)c(O)c12`, the GI50 in the test with LOX IMVI melanoma is 28 µM; in the test on M14 melanoma, 22.9 µM; with PC-3 prostate, 17400 nM; in the test with HT29 colon it was 42700 nM; with SF-268 CNS it was 4.55 µM; in the test with HOP-92 NSCLC, 3.58 µM. The GI50 in the test on NCI-H460 lung was 7990 nM; with SW-620 colon, 17800 nM. In addition, the TGI is greater than 100 µM in the test on LOX IMVI melanoma; 92.2 µM in the test with M14 melanoma; greater than 100 µM with PC-3 prostate; greater than 100 µM in the test on HT29 colon; 29.6 µM with SF-268 CNS; 48.7 µM in the test on HOP-92 NSCLC. Moreover, the TGI in the test on NCI-H460 lung and with SW-620 colon was greater than 100 µM throughout.

Regarding `COc1ccc2c(c1O)C13CCN(C)C(C2)C1CCC1(C3)OCCO1` (stereo not given), the TGI in the test with LOX IMVI melanoma, with M14 melanoma, in the test on PC-3 prostate, with HT29 colon, in the test with SF-268 CNS and in the test with HOP-92 NSCLC was greater than 100 µM each time. Besides, the TGI in the test with NCI-H460 lung and in the test with SW-620 colon was greater than 100 µM each time.

As for `O=C(Nc1ccc(F)cc1)Nc1ccccc1CNc1nc(Nc2ccc(OCCN3CCCC3)cc2)ncc1Cl`, the GI50 was 0.914 µM with LOX IMVI melanoma; 0.946 µM in the test on M14 melanoma; 1670 nM in the test on PC-3 prostate; 1490 nM in the test with HT29 colon; 1.26 µM in the test with SF-268 CNS; 0.849 µM with HOP-92 NSCLC. Also, the GI50 is 1150 nM in the test on NCI-H460 lung and 1650 nM in the test on SW-620 colon. Also, the TGI came to 1.69 µM with LOX IMVI melanoma; 2 µM in the test on M14 melanoma; 6.19 µM with PC-3 prostate; 50 µM with HT29 colon; 4.84 µM with SF-268 CNS; 2.49 µM with HOP-92 NSCLC. Moreover, the TGI came to 2.7 µM in the test on NCI-H460 lung and 6.84 µM in the test with SW-620 colon.

On to `CC(C)[C@H]1CC[C@H]2[C@@H](CC[C@H]3[C@](C)(CN)CCC[C@]23C)C1`, for which the GI50 in the test with LOX IMVI melanoma was 1.61 µM; in the test on M14 melanoma it was 1.77 µM; in the test with PC-3 prostate, 2360 nM; with HT29 colon, 1650 nM; in the test with SF-268 CNS, 2.36 µM; in the test with HOP-92 NSCLC, 1.22 µM. Moreover, the GI50 is 1680 nM with NCI-H460 lung and 1840 nM in the test on SW-620 colon. The TGI is 2.98 µM with LOX IMVI melanoma; 3.18 µM in the test on M14 melanoma; 7.14 µM in the test with PC-3 prostate; 3.3 µM in the test with HT29 colon; 6.04 µM with SF-268 CNS; 8.12 µM in the test with HOP-92 NSCLC. Moreover, the TGI is 3.31 µM in the test with NCI-H460 lung and 3.49 µM in the test on SW-620 colon.

As to `S=C(N/N=C(/c1ccccc1)c1ccccn1)N1CCCCC1`, the TGI in the test on LOX IMVI melanoma is 1.95 µM and 1.32 µM; with M14 melanoma, 1.66 µM and 0.543 µM; in the test on PC-3 prostate, 1.6 µM and 4.08 µM; with HT29 colon, 2.17 µM and 2.44 µM; in the test with SF-268 CNS it was 2.5 µM and 5.35 µM; in the test on HOP-92 NSCLC, 2.27 µM and 2.81 µM. In addition, the TGI in the test on NCI-H460 lung was 2.31 µM and 1.52 µM; in the test with SW-620 colon, 1.23 µM and 2.96 µM. Besides, the GI50 in the test with PC-3 prostate was less than 1 nM; with HT29 colon it was 34.5 nM; in the test with SF-268 CNS, 0.323 µM; with HOP-92 NSCLC it was 1.16 µM; in the test with NCI-H460 lung it was 1.49 nM; in the test on SW-620 colon, less than 1 nM.

Consider `Oc1ccc(CN2CCC(N3CCOCC3)CC2)c2cccnc12`, for which the GI50 in the test with LOX IMVI melanoma is 29.9 µM; in the test on M14 melanoma, 26.9 µM; in the test on PC-3 prostate, 46200 nM; in the test on HT29 colon, 100000 nM; in the test with SF-268 CNS, 16.3 µM; in the test on HOP-92 NSCLC, 65.9 µM. In addition, the GI50 in the test with NCI-H460 lung is 46900 nM; in the test with SW-620 colon it was 60000 nM. Besides, the TGI in the test on LOX IMVI melanoma, in the test with M14 melanoma, in the test on PC-3 prostate, in the test with HT29 colon, in the test with SF-268 CNS and in the test on HOP-92 NSCLC was greater than 100 µM throughout. The TGI in the test on NCI-H460 lung and with SW-620 colon was greater than 100 µM each time.

Turning to `COc1cc2cc(C(=O)CCC(=O)O)sc2cc1OC`, the GI50 in the test with LOX IMVI melanoma is greater than 100 µM; in the test with M14 melanoma, greater than 100 µM; with PC-3 prostate it was greater than 100000 nM; with HT29 colon, 54600 nM; in the test with SF-268 CNS, greater than 100 µM; in the test with HOP-92 NSCLC, 37.3 µM. Besides, the GI50 in the test with NCI-H460 lung and with SW-620 colon was greater than 100000 nM each time. Further, the TGI in the test with LOX IMVI melanoma, in the test with M14 melanoma, in the test with PC-3 prostate, in the test on HT29 colon, in the test with SF-268 CNS and in the test on HOP-92 NSCLC was greater than 100 µM each time. Further, the TGI in the test on NCI-H460 lung and with SW-620 colon was greater than 100 µM throughout.

On to `O=S(=O)(Cc1ccc(Cl)cc1Cl)c1ccc(Cl)cc1`, for which the GI50 is 0.587 µM in the test with LOX IMVI melanoma; 0.5 µM in the test with M14 melanoma; 1280 nM with PC-3 prostate; 338 nM in the test with HT29 colon; 0.827 µM in the test on SF-268 CNS; 20.8 µM in the test with HOP-92 NSCLC. The GI50 in the test with NCI-H460 lung is 401 nM; with SW-620 colon, 365 nM. Further, the TGI with LOX IMVI melanoma is greater than 100 µM; in the test on M14 melanoma it was 48.2 µM; in the test with PC-3 prostate, greater than 100 µM; in the test on HT29 colon, 3.84 µM; in the test with SF-268 CNS it was greater than 100 µM; in the test on HOP-92 NSCLC, greater than 92.5 µM. Also, the TGI with NCI-H460 lung was 30 µM; with SW-620 colon, greater than 100 µM.
